The assay deals with Adenovirus. In words: ASTM E1052-20 microbicides against viruses in suspension. It counts as cell-based. Particulars: 60 Seconds, remaining virus titre, Control 4.75. The protocol:
Skin, as used herein, is meant to include skin on the arms (including underarms), face, feet, neck, chest, hands, legs, buttocks and scalp (including hair). Sanitizing as used herein means a bacteria log kill of at least 2 and a viral log inactivation of at least 2 (both achieved) in less than 3 minutes after topical application to a surface. Sanitizing precursor means a composition which is a concentrate and suitable to be diluted (or hydrated) with water to produce a sanitizing composition ready for use. Combination, as used herein means, total weight of cetrimonium chloride plus benzalkonium chloride. Skin benefit agent means an ingredient suitable to improve a skin characteristic. Surface as used herein includes skin or the surface of an inanimate object such as a table top, computer monitor, door knob, toilet seat, shopping cart handle or even a clothing garment. Surface is also meant to include the coat of an animal such as the fur on a dog and cat. As used herein, surface preferably means human skin, and especially, skin on the face and hands. The dimonium and trimonium compounds used herein are meant to include salts of the same, especially chlorides and bromides of the same. Cationic surfactant, as used herein, is meant to include polyquaternium materials, like for example, polyquaternium-6. In an embodiment of the invention, the sanitizing composition of the present invention is a home care composition like a laundry spray composition suitable to spray clothing and upholstery requiring sanitizing. The home care composition can also be a sanitizing kitchen or bathroom spray composition. […] The composition of the present invention may optionally comprise skin benefit agents added thereto such as emollients, vitamins and/or derivatives thereof, resorcinols, retinoic acid precursors, colorants, moisturizers or humectants, fragrances, sunscreens, a mixture thereof or the like. The skin benefit ingredients may be water or oil soluble. The sanitizing composition, therefore, is an aqueous based composition with a pH from 3.0 to 8.2, and the composition is water continuous. Viscosity, as used herein, is taken with a Brookfield RV spindle 6 at 20 rpm for 30 seconds at 25° C. unless noted otherwise. […] Antimicrobial benefits mean at least a log kill of 2 in under 3 minutes whereby antimicrobial assessment is measured via test method ASTM-E2783-11 (Reapproved 2016) which sets forth the procedure for measuring antimicrobial activity for water miscible compounds using a time kill procedure. Viral (or virus) inactivation is determined by assessing the impact of microbiocides against viruses as set forth in ASTM-1052-20. […]

As for `CCCCCCCCCCCCCCCC[n+]1ccccc1.[Cl-]` [CPC, cetylpyridinum chloride], the “ADENOVIRUS Inactivation, Log10 TCID 50/0.1 ml” value was determined as 1.6 Log10 TCID 50/0.1 ml (test substance at 0.05%) and 1.6 Log10 TCID 50/0.1 ml (test substance at 0.1%).
As for `CCCCCCCCCCCCCCCC[N+](C)(C)C.[Br-]` [CTAB, cetrimonium bromide], the “ADENOVIRUS Inactivation, Log10 TCID 50/0.1 ml” value is recorded as 2.5 Log10 TCID 50/0.1 ml (test substance at 0.05%) and 1.75 Log10 TCID 50/0.1 ml (test substance at 0.1%).

Values taken from patent publication US20230255868A1, “SANITIZING COMPOSITION” (Conopco, Inc., d/b/a UNILEVER, priority 2020, published 2023).
